Source: paper PMC6218581, “Resurrecting the Regulatory Properties of the Ostreococcus tauri ADP-Glucose Pyrophosphorylase Large Subunit” (Frontiers in Plant Science, 2018)

Columns and labels:
OtaS/OtaL ADP-Glc PPase [1] = molecular target: T1, OtaS/OtaL ADP-Glc PPase (Ostreococcus tauri, UniProt A0A090M9E5+A0A096P9X2, A0A096P9X2:R476K, form not given); assay: ADP-[…]Glc formation, activation curve, Hill fit; format: biochemical; settings: allosteric activator; 50 mM HEPPS pH 8.0, 10 mM MgCl2, 1 mM Glc1P, 2.5 mM ATP, 37°C, no Pi; read-out: A0.5
T1 construct: gene OT_ostta07g03070; heterotetramer alpha2beta2, co-expressed from pMAB5/OtaS and pMAB6/OtaL in E. coli AC70R1-504; DEAE and Resource PHE purification, no tag mentioned
T1 sequence (A0A096P9X2 entry or part of it R476K, form open): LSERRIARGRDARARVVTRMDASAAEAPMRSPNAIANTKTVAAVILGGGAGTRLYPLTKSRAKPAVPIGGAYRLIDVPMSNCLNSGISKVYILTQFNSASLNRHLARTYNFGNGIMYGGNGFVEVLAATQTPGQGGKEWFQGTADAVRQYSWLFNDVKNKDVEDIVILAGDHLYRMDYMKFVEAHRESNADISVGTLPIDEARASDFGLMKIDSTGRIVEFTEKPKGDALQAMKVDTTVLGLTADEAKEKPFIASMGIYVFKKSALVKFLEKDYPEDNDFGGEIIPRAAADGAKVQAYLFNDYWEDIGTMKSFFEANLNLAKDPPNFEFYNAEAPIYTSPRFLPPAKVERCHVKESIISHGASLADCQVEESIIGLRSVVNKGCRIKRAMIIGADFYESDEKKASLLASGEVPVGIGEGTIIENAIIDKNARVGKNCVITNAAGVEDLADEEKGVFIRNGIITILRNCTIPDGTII
T1 sequence (A0A090M9E5 entry or part of it, form open): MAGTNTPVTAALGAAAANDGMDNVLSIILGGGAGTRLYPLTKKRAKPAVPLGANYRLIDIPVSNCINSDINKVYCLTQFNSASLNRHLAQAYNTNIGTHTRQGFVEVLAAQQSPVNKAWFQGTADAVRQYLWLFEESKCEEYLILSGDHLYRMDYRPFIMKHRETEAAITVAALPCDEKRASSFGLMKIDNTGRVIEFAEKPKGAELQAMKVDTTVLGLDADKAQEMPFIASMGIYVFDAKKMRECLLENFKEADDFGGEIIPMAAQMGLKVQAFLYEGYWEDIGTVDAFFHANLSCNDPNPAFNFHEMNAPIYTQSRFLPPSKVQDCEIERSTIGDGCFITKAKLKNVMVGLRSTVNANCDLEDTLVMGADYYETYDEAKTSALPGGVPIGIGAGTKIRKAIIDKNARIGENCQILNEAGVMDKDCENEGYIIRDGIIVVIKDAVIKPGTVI

OtaS/OtaL ADP-Glc PPase [2] = molecular target: T2, OtaS/OtaL ADP-Glc PPase (Ostreococcus tauri, UniProt A0A090M9E5+A0A096P9X2, A0A096P9X2:R476K/A0A090M9E5:K508R, form not given); assay: ADP-[…]Glc formation, activation curve, Hill fit; format: biochemical; settings: allosteric activator; 50 mM HEPPS pH 8.0, 10 mM MgCl2, 1 mM Glc1P, 2.5 mM ATP, 37°C, no Pi; read-out: A0.5
T2 construct: gene OT_ostta07g03070; heterotetramer alpha2beta2, co-expressed from pMAB5/OtaS and pMAB6/OtaL in E. coli AC70R1-504; DEAE and Resource PHE purification, no tag mentioned
T2 sequence (A0A096P9X2 entry or part of it R476K, form open): as the sequence (A0A096P9X2 entry or part of it R476K, form open) above
T2 sequence (A0A090M9E5 entry or part of it K508R, form open): as the sequence (A0A090M9E5 entry or part of it, form open) above, with K443R counted along it

[3] = molecular target: T3, StuSK441A/OtaL hybrid heterotetramer (Solanum tuberosum; Ostreococcus tauri, UniProt A0A096P9X2+P23509, A0A096P9X2:R476K/P23509:K511A, form not given); assay: ADP-[…]Glc formation, activation curve, Hill fit; format: biochemical; settings: read-out: A0.5; allosteric activator; 50 mM HEPPS pH 8.0, 10 mM MgCl2, 1 mM Glc1P, 2.5 mM ATP, 2 mM DTT, 37°C, no Pi
T3 construct: hybrid heterotetramer: potato tuber small subunit K441A co-expressed with O. tauri large subunit in E. coli AC70R1-504; purified
T3 sequence (P23509 73-521 K511A, form open): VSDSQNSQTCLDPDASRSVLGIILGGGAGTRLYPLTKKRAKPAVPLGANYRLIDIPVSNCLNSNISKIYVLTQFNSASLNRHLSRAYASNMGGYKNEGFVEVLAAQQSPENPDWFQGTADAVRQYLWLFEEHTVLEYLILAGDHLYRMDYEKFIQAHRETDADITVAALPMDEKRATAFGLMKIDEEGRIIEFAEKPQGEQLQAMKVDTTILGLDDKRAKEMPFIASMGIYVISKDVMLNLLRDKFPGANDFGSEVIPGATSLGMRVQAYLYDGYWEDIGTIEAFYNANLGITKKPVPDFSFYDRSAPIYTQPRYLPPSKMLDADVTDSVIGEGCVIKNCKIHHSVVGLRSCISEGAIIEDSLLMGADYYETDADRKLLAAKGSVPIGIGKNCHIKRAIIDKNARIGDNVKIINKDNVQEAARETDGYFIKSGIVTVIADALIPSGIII
T3 sequence (A0A096P9X2 entry or part of it R476K, form open): as the sequence (A0A096P9X2 entry or part of it R476K, form open) above

OtaS/OtaL ADP-Glc PPase [4] = molecular target: T4, OtaS/OtaL ADP-Glc PPase (Ostreococcus tauri, UniProt A0A090M9E5+A0A096P9X2, A0A096P9X2:L24M); assay: ADP-[…]Glc formation, activation curve, Hill fit; format: biochemical; design: gene OT_ostta07g03070; heterotetramer alpha2beta2, co-expressed from pMAB5/OtaS and pMAB6/OtaL in E. coli AC70R1-504; DEAE and Resource PHE purification, no tag mentioned; settings: allosteric activator; 50 mM HEPPS pH 8.0, 10 mM MgCl2, 1 mM Glc1P, 2.5 mM ATP, 37°C, no Pi; read-out: A0.5
T4 sequence (A0A090M9E5 entry or part of it): as the sequence (A0A090M9E5 entry or part of it, form open) above
T4 sequence (A0A096P9X2 entry or part of it L24M): as the sequence (A0A096P9X2 entry or part of it R476K, form open) above, with L1M, K453R counted along it

[5] = molecular target: T5, StuSK441A/OtaL hybrid heterotetramer (Solanum tuberosum; Ostreococcus tauri, UniProt A0A096P9X2+P23509, A0A096P9X2:L24M/P23509:K511A); assay: ADP-[…]Glc formation, activation curve, Hill fit; format: biochemical; settings: read-out: A0.5; allosteric activator; 50 mM HEPPS pH 8.0, 10 mM MgCl2, 1 mM Glc1P, 2.5 mM ATP, 2 mM DTT, 37°C, no Pi
T5 construct: hybrid heterotetramer: potato tuber small subunit K441A co-expressed with O. tauri large subunit in E. coli AC70R1-504; purified
T5 sequence (A0A096P9X2 entry or part of it L24M): as the sequence (A0A096P9X2 entry or part of it R476K, form open) above, with L1M, K453R counted along it
T5 sequence (P23509 73-521 K511A): as the sequence (P23509 73-521 K511A, form open) above

OtaS/OtaL ADP-Glc PPase [6] = molecular target: T6, OtaS/OtaL ADP-Glc PPase (Ostreococcus tauri, UniProt A0A090M9E5+A0A096P9X2, A0A096P9X2:L24M/A0A090M9E5:K508R); assay: ADP-[…]Glc formation, activation curve, Hill fit; format: biochemical; design: gene OT_ostta07g03070; heterotetramer alpha2beta2, co-expressed from pMAB5/OtaS and pMAB6/OtaL in E. coli AC70R1-504; DEAE and Resource PHE purification, no tag mentioned; settings: allosteric activator; 50 mM HEPPS pH 8.0, 10 mM MgCl2, 1 mM Glc1P, 2.5 mM ATP, 37°C, no Pi; read-out: A0.5
T6 sequence (A0A090M9E5 entry or part of it K508R): as the sequence (A0A090M9E5 entry or part of it, form open) above, with K443R counted along it
T6 sequence (A0A096P9X2 entry or part of it L24M): as the sequence (A0A096P9X2 entry or part of it R476K, form open) above, with L1M, K453R counted along it

OtaS/OtaL ADP-Glc PPase [7] = molecular target: T6, OtaS/OtaL ADP-Glc PPase; design: gene OT_ostta07g03070; settings: read-out: I0.5; allosteric inhibitor; 3PGA present at its A0.5 (1.6 mM); 50 mM HEPPS pH 8.0, 10 mM MgCl2, 1 mM Glc1P, 2.5 mM ATP, 37°C
Description: (§1) ADP-Glc PPase activity, inhibition curve, Hill fit on OtaS/OtaL ADP-Glc PPase

OtaS/OtaL ADP-Glc PPase [8] = molecular target: T4, OtaS/OtaL ADP-Glc PPase; design: gene OT_ostta07g03070; settings: read-out: I0.5; allosteric inhibitor; 3PGA present at its A0.5 (0.61 mM); 50 mM HEPPS pH 8.0, 10 mM MgCl2, 1 mM Glc1P, 2.5 mM ATP, 37°C
Description: as §1

Row | EC50 (OtaS/OtaL ADP-Glc PPase [1]) [µM] | EC50 (OtaS/OtaL ADP-Glc PPase [2]) [µM] | EC50 [3] [µM] | EC50 (OtaS/OtaL ADP-Glc PPase [4]) [µM] | EC50 [5] [µM] | EC50 (OtaS/OtaL ADP-Glc PPase [6]) [µM] | IC50 (OtaS/OtaL ADP-Glc PPase [7]) [µM] | IC50 (OtaS/OtaL ADP-Glc PPase [8]) [µM] | Compound
1 | 190 ± 10 | 740 ± 80 | 400 ± 20 | 610 ± 30 | 1200 ± 100 | 1600 ± 600 | – | – | O=C(O)[C@H](O)COP(=O)(O)O [3PGA]
2 | – | – | – | – | – | – | 1600 ± 200 | 179 ± 4 | O=P(O)(O)O [Pi]
